Test results published in patent US20240425529A1, “BORIC ACID DERIVATIVE” (SHOUYAO HOLDINGS (BEIJING) CO., LTD., priority 2021, published 2024).

How the values were obtained:
LMP7 [1] = target: T1, LMP7 (Homo sapiens, UniProt P28062); experiment: Enzymatic inhibitory activity on LMP7 (MOLT-4 cell lysate, Ac-ANW-AMC substrate); format: biochemical; conditions: 1 hour pre-incubation
T1 construct: using MOLT-4 cell lysate as the enzyme source of LMP7; endogenous in cells; host or cells: MOLT-4 (human acute lymphoblastic leukemia cells)
Excerpt: LMP7 is a catalytic subunit of immunoproteasomes. In this experiment, an enzymatic detection platform was established using its hydrolytic enzyme activity and used for compound activity detection. Using Ac-ANW-AMC (Bonston Biochem, Cat #S-320) as a substrate for LMP7, the amount of fluorescent group AMC (7-amino-4-methylcoumarin) released after hydrolysis can reflect the enzymatic activity. MOLT-4 cells are human acute lymphoblastic leukemia cells and have been identified as cells with high expression of LMP7. We established an enzymatic detection method for compound inhibition on LMP7 using MOLT-4 cell lysate as the enzyme source of LMP7 and detected the compound inhibitory activity (half inhibitory concentration, IC50).
(§1) MOLT-4 cells were cultured in a 75 cm^2 cell culture flask (Corning) (37° C., 95% air, and 5% CO2) with RPMI-1640 (Biological Industries) medium containing 10% fetal bovine serum (Biological Industries) and 1% Pen Strep (Gibco) and passaged 2-3 times one week. 1×10^7 MOLT-4 cells were collected, resuspended in 1 ml of PBS (Solarbio), and centrifuged at 3000 rpm for 5 minutes. The supernatant was aspirated off. The cells were resuspended in 500 μl of lysis buffer (20 mM Tris, pH 8.0, 5 mM EDTA, plus Protease inhibitor (1:1000) and Phosphatase Inhibitor (1:100) when used) and left on ice for 30 minutes. The cells were broken by supersonic technique, 0.5 S on, 0.5 S off, for 2.5 S. The centrifuge was performed at 12000 rpm, 4° C. for 10 minutes. The supernatant was the cell lysate and protein quantification was performed by using the BCA method (Thermo, #23225).
Compounds were diluted in a 5-fold gradient with 100% DMSO for a total of 9 concentrations: 2 W for each concentration was added to a 48-μl reaction buffer (20 mM Tris, pH 8.0, 0.5 mM EDTA) and mixed well as 4* compound (final concentrations: 2000, 400, 80, 16, 3.2, 0.64, 0.128, 0.0256, and 0 nM) for later use. A reaction buffer was used to prepare 4* MOLT-4 cell lysate at a final concentration of 20 ng/μl and 2*Ac-ANW-AMC at a final concentration of 100 µM. 5 μl of 4* compound was added to a 384-well plate (OptiPlate-384, purchased from PerkinElmer), added with 5 W of 4* cell lysate, centrifuged, and reacted in an incubator at 23° C. for 1 hour. 10 W of 2* Ac-ANW-AMC was added and the reaction was started by centrifugation at 23° C. in the dark for 2 hours. After completion of the reaction, the signal value (excitation wavelength 345 nm/emission wavelength 445 nm) was read on the CLARIO star^Plus (purchased from BMG LRBTECH). Enzyme activity was determined at 9 concentrations for each compound, and data were processed using the GraphPad Prism software to calculate the half inhibitory concentration of the compound on LMP7, i.e. the IC50 value.

β5 = target: T2, β5 (Homo sapiens, UniProt P28074); experiment: Enzymatic inhibitory activity on β5 (HEK-293 cell lysate, Ac-WLA-AMC substrate); format: biochemical; conditions: 1 hour pre-incubation
T2 construct: using HEK-293 cell lysate as the enzyme source of D5; endogenous in cells; host or cells: HEK-293 (human embryonic kidney cells)
Excerpt: β5 is a catalytic subunit of immunoproteasomes. In this experiment, an enzymatic detection platform was established using its hydrolytic enzyme activity and used for compound activity detection. Using Ac-WLA-AMC (Bonston Biochem, Cat #5-330) as a substrate for D5, the amount of fluorescent group AMC (7-amino-4-methylcoumarin) released after hydrolysis can reflect the enzymatic activity. […] We established an enzymatic detection method for compound inhibition on D5 using HEK-293 cell lysate as the enzyme source of D5 and detected the compound inhibitory activity (half inhibitory concentration, IC50). The enzymatic inhibitory activity of compounds against D5 was used as a measure index of compound selectivity.
as §1, with “HEK-293” for “MOLT-4”, “DMEM” for “RPMI-1640”, “performed” for “performed by”
Compounds were diluted in a 5-fold gradient with 100% DMSO for a total of 9 concentrations. 2 W for each concentration was added to a 48-μl reaction buffer (20 mM Tris, pH 8.0, 0.5 mM EDTA) and mixed well as 4* compound (final concentrations: 100000, 20000, 4000, 800, 160, 32, 6.4, 1.28, and 0 nM) for later use. A reaction buffer was used to prepare 4*HEK-293 cell lysate at a final concentration of 25 ng/μl and 2*Ac-WLA-AMC at a final concentration of 20 μM. 5 W of 4* compound was added to a 384-well plate (OptiPlate-384, purchased from PerkinElmer), added with 5 W of 4*HEK-293 cell lysate, centrifuged, and reacted in an incubator at 23° C. for 1 hour. 10 W of 2* Ac-WLA-AMC was added and the reaction was started by centrifugation at 23° C. in the dark for 2 hours. After completion of the reaction, the signal value (excitation wavelength 345 nm/emission wavelength 445 nm) was read on the CLARIO star^Plus (purchased from BMG LRBTECH). Enzyme activity was determined at 9 concentrations for each compound, and data were processed using the GraphPad Prism software to calculate the half inhibitory concentration of the compound on D5, i.e. the IC50 value.

LMP7 [2] = target: T1, LMP7; experiment: Cytological inhibitory activity on LMP7 in MOLT-4 cells; format: cell-based; conditions: incubation for 2 hours with compound, read-out: Cytological activity data LMP7 Activity (MOLT-4Cell)
Experimental: MOLT-4 are human acute lymphoblastic leukemia cells and have been identified as cells with high expression of LMP7. In this experiment, the compounds were pre-incubated with MOLT-4, and Ac-ANW-AMC (BonstonBiochem, Cat #S-320) was used as the substrate of LMP7 to establish the detection method for the enzymatic activity of LMP7 in cells and detect the compound inhibitory activity (half inhibitory concentration, IC50).
Cells were plated in a 24-well plate (Corning) at a concentration of 1.5×10^5/ml per well. The next day compounds were prepared and diluted in a 5-fold gradient from 2 mM in 100% DMSO for a total of 8 concentrations. 2 μl for each concentration of the compound was added to a 1-ml cell culture medium, supplemented with 1 ml of RPMI-1640 only (final FBS concentration 5%, v/v). The compounds were mixed with the cells. After incubation for 2 hours in the incubator, the cells were centrifuged at 2000 rpm for 8 minutes to discard the supernatant. The cells were washed once with 2 ml PBS (Solarbio), and centrifuged again to discard the supernatant. The cells were resuspended in 100 μl of lysis buffer (20 mM Tris, pH 8.0, 5 mM EDTA, plus Protease inhibitor (1: 100) and Phosphatase Inhibitor (1:100) when used) and left in a 4° C. refrigerator for 45 minutes.
After 2 min. of centrifuge at 2000 rpm, the lysate was transferred from the 24-well plate to a 96-well plate, and centrifuged at 2000 rpm, 4° C., for 15 min. The supernatant was the lysate. Protein quantification was performed using the BCA method (Thermo, #23225). A 2* lysate was prepared with the reaction buffer (20 mM Tris, pH 8.0, 0.5 mM EDTA) at a final concentration of 20 ng/μl. 2* Ac-ANW-AMC was prepared with the reaction buffer at a final concentration of 100 μM. 10 µl of 2* lysate was added to a 384-well plate (OptiPlate-384, purchased from PerkinElmer), and added with 10 W of 2* Ac-ANW-AMC. The reaction was started by centrifugation at 23° C. in the dark for 1 hour. After completion of the reaction, the signal value (excitation wavelength 345 nm/emission wavelength 445 nm) was read on the CLARIO starPlus (purchased from BMG LRBTECH). Enzyme activity was determined at 8 concentrations for each compound, and data were processed using the GraphPad Prism software to calculate the half inhibitory concentration of the compound on LMP7 hydrolase in MOLT-4 cells, i.e. the IC50 value.

Compound | IC50 (LMP7 [1]) [nM] | IC50 (β5) [nM] | IC50 (LMP7 [2]) [nM]
O=C(Nc1cnccn1)C(=O)N[C@@H](Cc1coc2ccccc12)B1OC(=O)c2ccccc2O1 [Ex. 20, N-((1R)-2-(1-benzofuran-3-yl)-1-(4-oxo-2,4-dihydro-1,3,2-benzo[d][1,3,2]dioxaborinin-2-yl)ethyl)-N-(pyrazin-2-yl)oxalamide] | 1.2 | 18.8 | 0.32
CC1(C)[C@@H]2C[C@H]3OB([C@H](Cc4coc5ccccc45)NC(=O)C(=O)Nc4ccccn4)O[C@@]3(C)[C@H]1C2 [Ex. 23, (R)-(2-(benzofuran-3-yl)-1-(2-oxo-2-(pyridin-2-ylamino)acetamido)ethyl) boronic acid (1S,2S,3R,5S)-(+)-pinane-2,3-diol ester] | 3.81 | 126 | 1.65
CC1(C)OB([C@H](Cc2coc3ccccc23)NC(=O)C(=O)Nc2cnccn2)OC1(C)C [Ex. 19, N-((1R)-2-(1-benzofuran-3-yl)-1-(tetramethyl-1,3,2-dioxaborolan-2-yl)ethyl)-N-(pyrazin-2-yl)oxalamide] | 1.11 | 12.2 | 0.69
Cc1csc(NC(=O)C(=O)N[C@@H](Cc2coc3ccccc23)B(O)O)n1 [Ex. 31, (R)-(2-(benzofuran-3-yl)-1-(2-oxo-2-((4-methylthiazol-2-yl)amino)acetamido)ethyl)boronic acid] | 2.91 | 72.5 | 11
O=C(O)CC1(CC(=O)O)OB([C@H](Cc2coc3ccccc23)NC(=O)C(=O)Nc2cnccn2)OC1=O [Ex. 18, (R)-2,2′-(2-(2-(benzofuran-3-yl)-1-(2-oxo-2-(pyrazin-2-ylamino)acetamido)ethyl)-5-oxo-1,3,2-dioxaborolane-4,4-diyl)diacetic acid] | 2.42 | 34.1 | 1.26
COc1ccc2nc(NC(=O)C(=O)N[C@@H](Cc3coc4ccccc34)B(O)O)sc2c1 [Ex. 26, (R)-(2-(benzofuran-3-yl)-1-(2-oxo-2-((6-methoxybenzo[d]thiazol-2-yl)amino)acetamido)ethyl)boronic acid] | 4.86 | 19.4 | 0.73

Other lines, results leading:

IC50 (LMP7 [1]) [nM] | IC50 (β5) [nM] | IC50 (LMP7 [2]) [nM] | Compound
0.89 | 23.7 | 5.33 | CC1(C)[C@@H]2C[C@H]3OB([C@H](Cc4coc5ccccc45)NC(=O)C(=O)Nc4ccc(F)cc4F)O[C@@]3(C)[C@H]1C2 [Ex. 54, (R)-(2-(benzofuran-3-yl)-1-(2-oxo-2-(2,4-difluorophenylamino)acetamido)ethyl)boronic acid (1S,2S,3R,5S)-(+)-pinane-2,3-diol ester]
4.27 | 722 | 46.6 | COC(=O)C(=O)N[C@@H](Cc1coc2ccccc12)B1O[C@@H]2CC3C[C@@H](C3(C)C)[C@]2(C)O1 [Ex. 61, (R)-(2-(benzofuran-3-yl)-1-(2-oxo-2-methoxyacetamido)ethyl)boronic acid (1S,2S,3R,5S)-(+)-pinane-2,3-diol ester]
1.32 | 140 | 4.03 | Cn1cccc(NC(=O)C(=O)N[C@@H](Cc2coc3ccccc23)B2O[C@@H]3C[C@@H]4C[C@@H](C4(C)C)[C@]3(C)O2)c1=O [Ex. 57, (R)-(2-(benzofuran-3-yl)-1-(2-oxo-2-((1-methyl-2-oxo-1,2-dihydropyridin-3-yl)amino)acetamido)ethyl)boronic acid (1S,2S,3R,5S)-(+)-pinane-2,3-diol ester]
0.95 | 84.1 | 5.45 | Cn1cccc(NC(=O)C(=O)N[C@@H](Cc2coc3ccccc23)B(O)O)c1=O [Ex. 58, (R)-(2-(benzofuran-3-yl)-1-(2-oxo-2-((1-methyl-2-oxo-1,2-dihydropyridin-3-yl)amino)acetamido)ethyl)boronic acid]
7.89 | 1300 | 26.7 | COC(=O)C(=O)N[C@@H](Cc1coc2ccccc12)B(O)O [Ex. 62, (R)-(2-(benzofuran-3-yl)-1-(2-oxo-2-methoxyacetamido)ethyl)boronic acid]
5.32 | 97.7 | 22.7 | COc1ncccc1NC(=O)C(=O)N[C@@H](Cc1coc2ccccc12)B(O)O [Ex. 45, (R)-(2-(benzofuran-3-yl)-1-(2-oxo-2-((2-methoxypyridin-3-yl)amino)acetamido)ethyl)boronic acid]
